Results as given in paper PMC3736852 (Endocrine-related cancer, 2012).

Molecular target: T1, Na+/I− symporter (NIS) (Rattus norvegicus, UniProt Q63008)
T1 sequence (Q63008 1-618): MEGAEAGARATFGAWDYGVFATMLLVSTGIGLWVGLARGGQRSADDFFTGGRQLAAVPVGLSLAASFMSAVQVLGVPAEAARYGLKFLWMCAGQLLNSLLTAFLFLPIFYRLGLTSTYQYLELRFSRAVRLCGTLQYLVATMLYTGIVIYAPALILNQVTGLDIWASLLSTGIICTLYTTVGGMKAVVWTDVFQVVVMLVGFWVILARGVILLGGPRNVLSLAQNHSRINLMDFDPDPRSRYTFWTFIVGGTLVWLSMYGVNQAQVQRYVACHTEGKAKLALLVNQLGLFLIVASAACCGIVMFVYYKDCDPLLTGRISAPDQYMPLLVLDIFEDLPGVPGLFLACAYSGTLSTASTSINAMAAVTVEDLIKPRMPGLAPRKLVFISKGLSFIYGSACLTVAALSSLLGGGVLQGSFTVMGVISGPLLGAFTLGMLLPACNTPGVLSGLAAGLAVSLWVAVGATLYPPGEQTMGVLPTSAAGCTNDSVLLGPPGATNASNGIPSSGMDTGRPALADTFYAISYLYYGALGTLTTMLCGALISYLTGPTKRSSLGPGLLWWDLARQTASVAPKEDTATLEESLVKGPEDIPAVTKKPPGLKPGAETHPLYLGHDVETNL
Experiment: inhibition of NIS-mediated […] radioiodide uptake
Assay type: cell-based

`[O-][Cl+3]([O-])([O-])O` [perchlorate] gave an IC50 of 3 µM.
